In US11040028B2, “Penicinotam derivative, preparation method and use thereof” (OCEAN UNIVERSITY OF CHINA, priority 2017, dated 2021):

Columns and labels:
Type in all cases: cell-based
[1] = system: human dermal fibroblasts CCC-ESF-1; assay: Anti-fibrosis activity test: inhibition of proliferation of human dermal fibroblasts CCC-ESF-1 (CCK-8); conditions: human dermal fibroblasts CCC-ESF-1, CCK-8, 48 hours
Procedure: (§1) BHK-21 cells in exponential growth phase were selected. After the fusion growth reached 85-95%, normal passage method was utilized to digest and collect the cells, followed by cell counting and adjusting the cell density to 2×10^4 cells/mL. The cells were seeded into 96-well plates, 100 μL/well, and were incubated under the condition of 5% CO2 at 37° C.
(§2) The supernatant was removed after the cells had adhered to the wall for 24 hours. The culture solution containing the prepared compounds at different concentrations were added to the wells, 100 μL/well, each concentration in triplicate. The cells were subcultured for 48 hours after administration. Commercially available pirfenidone was employed as the positive control.
(§3) 10 μL of CCK-8 solution ( 1/10 of the volume of the culture solution) was added to each well 48 hours after the administration, and incubated for 2 hours. The absorbance (A) of each well was determined by a microplate reader at 450 nm wavelength. The inhibition rate against cell proliferation for each compound was calculated based on A, wherein inhibition rate against cell proliferation (inhibition ratio, IR)=(1−value of experimental group (Ai)/value of blank control group (Ao))×100% and the IC50 value of each compound was calculated by the data processing software.
(§4) Using the same protocol for the cell experiments, the inhibitory activity of the test compounds against the proliferation of human lung fibroblasts HFL1, human hepatic stellate cells LX-2, human fibrosarcoma cells HT-1080, human dermal fibroblasts CCC-ESF-1, human embryonic lung fibroblast IMR-90, cardiac fibroblast RAT-iCell-C002 was assayed.

[2] = system: human lung fibroblasts HFL1; assay: Anti-fibrosis activity test: inhibition of proliferation of human lung fibroblasts HFL1 (CCK-8); conditions: human lung fibroblasts HFL1, CCK-8, 48 hours
Procedure: as §1, §2, §3, §4

BHK-21 cells = assay: Anti-fibrosis activity test: inhibition of BHK-21 cell proliferation (CCK-8)
Procedure: as §1, §2, §3

[3] = system: human fibrosarcoma cells HT-1080; assay: Anti-fibrosis activity test: inhibition of proliferation of human fibrosarcoma cells HT-1080 (CCK-8); conditions: human fibrosarcoma cells HT-1080, CCK-8, 48 hours
Procedure: as §1, §2, §3, §4

[4] = system: human embryonic lung fibroblast IMR-90; assay: Anti-fibrosis activity test: inhibition of proliferation of human embryonic lung fibroblast IMR-90 (CCK-8); conditions: human embryonic lung fibroblast IMR-90, CCK-8, 48 hours
Procedure: as §1, §2, §3, §4

[5] = system: cardiac fibroblast RAT-iCell-C002; assay: Anti-fibrosis activity test: inhibition of proliferation of cardiac fibroblast RAT-iCell-C002 (CCK-8); conditions: Cardiac fibroblast, 48 h, cardiac fibroblast RAT-iCell-C002, CCK-8, 48 hours
Procedure: as §1, §2, §3, §4

[6] = system: human hepatic stellate cells LX-2; assay: Anti-fibrosis activity test: inhibition of proliferation of human hepatic stellate cells LX-2 (CCK-8); conditions: human hepatic stellate cells LX-2, CCK-8, 48 hours
Procedure: as §1, §2, §3, §4

[7] = Mesocricetus auratus, BHK-21, 48 h, CCK-8, 48 hours after administration
[8] = CCK-8, 48 hours after administration

Measured: IC50

O=C1c2c(nc3cc(N4CCNCC4)c(F)cc3c2OCc2ccc(-c3ccccc3)cc2)-c2cccn21 [Compound 637b, 9-([1,1′-biphenyl]-4-ylmethoxy)-7-fluoro-6-(piperazin-1-yl)-10H-pyrrolizino[1,2-b]quinolin-10-one]
0.05 to 5 mM: [1]; Fibroblast | [2]; Homo sapiens, HFL1, 48 h | BHK-21 cells; [7] | [4] | [5] | [6]; Homo sapiens, 48 h
5 to 20 mM: [3]; Homo sapiens, HT-1080, 48 h

O=C1c2c(nc3cc(N4CCNCC4)cc(F)c3c2OCc2ccc(Cl)cc2)-c2cccn21 [Compound 647b, 9-((4-chlorobenzyl)oxy)-8-fluoro-6-(piperazin-1-yl)-10H-pyrrolizino[1,2-b]quinolin-10-one]
0.05 to 5 mM: [1]; Fibroblast | [2]; Homo sapiens, HFL1, 48 h | BHK-21 cells; [7] | [3]; Homo sapiens, HT-1080, 48 h | [4] | [5] | [6]; Homo sapiens, 48 h

O=C1c2c(n(Cc3ccc(Cl)cc3)c3cc(N4CCNCC4)cc(F)c3c2=O)-c2cccn21 [Compound 647a, 4-(4-Chlorobenzyl)-8-fluoro-6-(piperazin-1-yl)-9H-pyrrolizino[1,2-b]quinoline-9,10(4H)-dione]
0.05 to 5 mM: [1]; Fibroblast | [2]; Homo sapiens, HFL1, 48 h | BHK-21 cells; [7] | [3]; Homo sapiens, HT-1080, 48 h | [4] | [5] | [6]; Homo sapiens, 48 h

O=C1c2c(n(Cc3ccccc3Cl)c3cccc(Cl)c3c2=O)-c2cccn21 [Compound 645a, 8-Chloro-4-(2-chlorobenzyl)-9H-pyrrolizino[1,2-b]quinoline-9,10(4H)-dione]
< 0.05 mM: [1]; Fibroblast
0.05 to 5 mM: [2]; Homo sapiens, HFL1, 48 h | BHK-21 cells; [7] | [3]; Homo sapiens, HT-1080, 48 h | [4] | [5] | [6]; Homo sapiens, 48 h

N#Cc1ccc(COc2c3c(nc4cc(N5CCNCC5)c(F)cc24)-c2cccn2C3=O)cc1 [Compound 635b, 4-(((7-fluoro-10-oxo-6-(piperazin-1-yl)-10H-pyrrolizino[1,2-b]quinolin-9-yl)oxy)methyl)benzonitrile]
0.05 to 5 mM: [1]; Fibroblast | [2]; Homo sapiens, HFL1, 48 h | BHK-21 cells; [7] | [3]; Homo sapiens, HT-1080, 48 h | [4] | [5] | [6]; Homo sapiens, 48 h

CC(C)CCOc1c2c(nc3cc(N4CCNCC4)c(F)cc13)-c1cccn1C2=O [Compound 347b, 7-fluoro-9-(isopentyloxy)-6-(piperazin-1-yl)-10H-pyrrolizino[1,2-b]quinolin-10-one]
0.05 to 5 mM: [1]; Fibroblast | [2]; Homo sapiens, HFL1, 48 h | BHK-21 cells; [7] | [3]; Homo sapiens, HT-1080, 48 h | [4] | [5] | [6]; Homo sapiens, 48 h

N#Cc1cc2c(OCc3ccc(Cl)cc3)c3c(nc2cc1N1CCNCC1)-c1cccn1C3=O [Compound 640b, 9-((4-chlorobenzyl)oxy)-10-oxo-6-(piperazin-1-yl)-10H-pyrrolizino[1,2-b]quinoline-7-carbonitrile]
0.05 to 5 mM: [1]; Fibroblast | [2]; Homo sapiens, HFL1, 48 h | BHK-21 cells; [7] | [3]; Homo sapiens, HT-1080, 48 h | [4] | [5] | [6]; Homo sapiens, 48 h

O=C1c2c(n(Cc3cc(C(F)(F)F)cc(C(F)(F)F)c3)c3cc(N4CCNCC4)c(F)cc3c2=O)-c2cccn21 [Compound 639a, 4-(3,5-Bis(trifluoromethyl)benzyl)-7-fluoro-6-(piperazin-1-yl)-9H-pyrrolizino[,2-b]quinoline-9,10(4H)-dione]
< 0.05 mM: [1]

O=C1c2c([nH]c3cc(N4CCNCC4)c(F)cc3c2=O)-c2cccn21 [Compound 346a, 7-Fluoro-6-(piperazin-1-yl)-9H-pyrrolizino[1,2-b]quinoline-9,10(4H)-dione]
0.05 to 5 mM: [1]; Fibroblast | [2]; Homo sapiens, HFL1, 48 h | BHK-21 cells; [7] | [3]; Homo sapiens, HT-1080, 48 h | [4] | [5] | [6]; Homo sapiens, 48 h

O=C1c2c(nc3cc(N4CCNCC4)ccc3c2OCc2ccc(F)cc2F)-c2cccn21 [Compound 630b, 9-((2,4-difluorobenzyl)oxy)-6-(piperazin-1-yl)-10H-pyrrolizino[1,2-b]quinolin-10-one]
5 to 20 mM: [2]
0.05 to 5 mM: BHK-21 cells; [8]

O=C1c2c(nc3cc(N4CCNCC4)cc(F)c3c2OCc2ccc(F)cc2)-c2cccn21 [Compound 646b, 8-fluoro-9-((4-fluorobenzyl)oxy)-6-(piperazin-1-yl)-10H-pyrrolizino[1,2-b]quinolin-10-one]
0.05 to 5 mM: [1]; Fibroblast | [2]; Homo sapiens, HFL1, 48 h | BHK-21 cells; [7] | [3]; Homo sapiens, HT-1080, 48 h | [4] | [5] | [6]; Homo sapiens, 48 h

O=C1c2c(nc3cc(N4CCNCC4)c(F)cc3c2OCc2ccc(Cl)cc2)-c2cccn21 [Compound 632b, 9-((4-chlorobenzyl)oxy)-7-fluoro-6-(piperazin-1-yl)-10H-pyrrolizino[1,2-b]quinolin-10-one]
0.05 to 5 mM: [1]; Fibroblast | [2]; Homo sapiens, HFL1, 48 h | BHK-21 cells; [7] | [3]; Homo sapiens, HT-1080, 48 h | [4] | [5] | [6]; Homo sapiens, 48 h

N#Cc1cc2c(OCc3ccc(C(F)(F)F)cc3)c3c(nc2cc1N1CCNCC1)-c1cccn1C3=O [Compound 642b, 10-oxo-6-(piperazin-1-yl)-9-((4-(trifluoromethyl)benzyl)oxy)-10H-pyrrolizino[1,2-b]quinoline-7-carbonitrile]
0.05 to 5 mM: [1]; Fibroblast | [2]; Homo sapiens, HFL1, 48 h | BHK-21 cells; [7] | [3]; Homo sapiens, HT-1080, 48 h | [4] | [5] | [6]; Homo sapiens, 48 h

Cc1cc2n(c1)C(=O)c1c-2nc2ccccc2c1O [Compound 801b, 9-hydroxy-2-methyl-0H-pyrrolizino[1,2-b]quinolin-10-one]
0.05 to 5 mM: BHK-21 cells; 48 h, CCK-8

N#Cc1cc2c(=O)c3c(n(Cc4ccc(Cl)cc4)c2cc1N1CCNCC1)-c1cccn1C3=O [Compound 640a, 4-(4-Chlorobenzyl)-9,10-dioxo-6-(piperazin-1-yl)-4,10-dihydro-9H-pyrrolizino[1,2-b]quinoline-7-carbonitrile]
0.05 to 5 mM: [1]; Fibroblast | [2]; Homo sapiens, HFL1, 48 h | BHK-21 cells; [7] | [3]; Homo sapiens, HT-1080, 48 h | [4] | [5] | [6]; Homo sapiens, 48 h

O=C1c2c(n(Cc3ccc(Br)cc3)c3cc(N4CCNCC4)c(F)cc3c2=O)-c2cccn21 [Compound 633a, 4-(4-Bromobenzyl)-7-fluoro-6-(piperazin-1-yl)-9H-pyrrolizino[1,2-b]quinoline-9,10(4H)-dione]
0.05 to 5 mM: [1]; Fibroblast | [2]; Homo sapiens, HFL1, 48 h | [3]; Homo sapiens, HT-1080, 48 h | [4] | [5] | [6]; Homo sapiens, 48 h
< 0.05 mM: BHK-21 cells; [7]

N#Cc1ccccc1-c1ccc(COc2c3c(nc4cc(N5CCNCC5)c(F)cc24)-c2cccn2C3=O)cc1 [Compound 638b, 4′-(((7-fluoro-10-oxo-6-(piperazin-1-yl)-10H-pyrrolizino[1,2-b]quinolin-9-yl)oxy)methyl)-[1,1′-biphenyl]-2-carbonitrile]
0.05 to 5 mM: [1]; Fibroblast | [2]; Homo sapiens, HFL1, 48 h | BHK-21 cells; [7] | [3]; Homo sapiens, HT-1080, 48 h | [4] | [5] | [6]; Homo sapiens, 48 h

CC(C)CCn1c2c(c(=O)c3cc(F)c(N4CCNCC4)cc31)C(=O)n1cccc1-2 [Compound 347a, 7-Fluoro-4-isopentyl-6-(piperazin-1-yl)-9H-pyrrolizino[1,2-b]quinoline-9,10(4H)-dione]
0.05 to 5 mM: [1]; Fibroblast | [2]; Homo sapiens, HFL1, 48 h | BHK-21 cells; [7] | [3]; Homo sapiens, HT-1080, 48 h | [4] | [5]
5 to 20 mM: [6]; Homo sapiens, 48 h

O=C(Cn1c2c(c(=O)c3ccccc31)C(=O)n1cccc1-2)c1ccc(C(F)(F)F)cc1 [Compound 91a, 4-(2-Oxo-2-(4-(trifluoromethyl)phenyl)ethyl)-9H-pyrrolizino[1,2-b]quinoline-9,10(4)-dione]
5 to 20 mM: [3]
0.05 to 5 mM: [6]

O=C1c2c(n(Cc3ccc(F)cc3F)c3cc(N4CCNCC4)ccc3c2=O)-c2cccn21 [Compound 630a, 4-(2,4-Difluorobenzyl)-6-(piperazin-1-yl)-9H-pyrrolizino[1,2-b]quinoline-9,10(4H)-dione]
< 0.05 mM: [2] | BHK-21 cells; [8]

N#Cc1ccc2nc3c(c(OCc4ccc(-c5ccccc5C#N)cc4)c2c1)C(=O)n1cccc1-3 [Compound 629b, 9-((2′-cyano-[1,1′-biphenyl]-4-yl)methoxy)-10-oxo-10H-pyrrolizino[,2-b]quinoline-7-carbonitrile]
0.05 to 5 mM: [1] | BHK-21 cells; [8]
